Patent US7927850B2, “Composition containing trehalose synthase and methods of use thereof” (Academia Sinica, priority 2006, dated 2011)

B1: native PTTS: Picrophilus torridus trehalose synthase protein without the linker and hexahistidine tag (SEQ ID NO: 3) (protein, listed as Picrophilus torridus)
chain: MLDNNGLWYRDAVFYEVPVKSFYDSNNDGIGDFNGLTMKLDYLKKLGVDALWLLPFYKSPLKDDGYDISDYYSILPEYGTIDDFKNFIDTAHSMNIRVIADLVLNHVSDQHPWFIESRSSIDNPKRDWFIWSDTPEKFKEARIIFIDTEKSNWTYDPETKQYYFHRFYSSQPDLNYDNPDVRNEVKKVIRYWLDLGLDGFRADAVPYLFKRENTNCENLPETHNFFKEIRKMMDEDYPGTILLAEANQWPTETKAYFGNGDEFHMAFNFPLMPRIFIALARSDYYPIMDIIKQTLPIPDNCDWCIFLRNHDELTLEMVTDSERDIMYREYAKIPKMRLNLGIRRRLAPLADNDINTIELLNALIFSLPGTPIIYYGDEIGMGDNIYLGDRNGVRTPMQWSYDRNAGFSMADSEQLYSPVITNPNYHYESVNVEAELRLSSSLLNWMIKIIHVRKDYKELLGRGSIKFIEQGNKRVLSYIREYENQRMLCLFNLSRNPTYVELNLSDYIGLKPIEAITKAAFPRIKDDRYFITMTPRSFFWFNLIVPERDDSYDLIGED

Tested on: recombinant PTTS
Experiment: Substrate specificity of recombinant PTTS
Assay type: biochemical, Picrophilus torridus
Conditions: standard assay conditions
Description: (§1) The activity of PTTS was assayed by measuring the amount of trehalose produced from maltose. The standard reaction was performed by adding 1.5 μL purified enzyme into 50 μL reaction solution containing 50 mM sodium phosphate (pH 6.0) and 150 mM maltose and incubating in a 45° C. water bath for 25 min. The assay time was under the linear range of enzyme reaction. The reaction was terminated by heating the mixture in boiling water for 15 min. One unit of enzyme activity was defined as the amount of enzyme that catalyzes the formation of 1 μmol of trehalose per min. Kinetic analysis was performed under conditions of pH 6.0 and 45° C. for 5 min in 50 mM sodium phosphate buffer containing substrate (maltose, trehalose, or maltose plus a constant 10 mM of glucose) at various concentrations. The resulting data were analyzed offline with Origin 6.0 software (Microcal, Northampton, Mass.). All experiments were carried out in duplicate or triplicate.
(§2) The amount of trehalose, glucose, and maltose after each enzymatic reaction was measured using a high performance liquid chromatography (HPLC) (SFD 2100) system equipped with an RI detector (Schambeck S F D, RI 2000) at a flow rate of 0.9 mL/min. A carbohydrate analysis column (HYPERSIL-100 Amino, Thermo Hypersil-Keystone) equilibrated with 75% acetonitrile, 24% Milli-Q water, and 1% formic acid was used. The retention times of glucose, maltose, and trehalose were 8.0, 11.2, and 12.5 min, respectively.
Substrate Specificity of Recombinant PTTS. […] It also acted on sucrose and catalyzed the formation of glucose, fructose, and trehalulose [α-D-glucopyranosyl-(1,1)-D-fructofuranose], however, the activity is quite low. In addition, it converted the α,β-1,1-trehalose to maltose, though only about 7% just as with the α,α-1,1-trehalose.

| Molecule | activity of recombinant PTTS with the substance as substrate | conversion to maltose relative to α,α-1,1-trehalose |
| --- | --- | --- |
| O=C(CO)[C@@H](O)[C@H](O)[C@H](O)CO [fructose] | No detectable activities |  |
| O=C[C@H](O)[C@@H](O)[C@@H](O)[C@H](O)CO [galactose] | No detectable activities |  |
| OC[C@H]1O[C@H](OC[C@H]2OC(O)(CO)[C@@H](O)[C@@H]2O)[C@H](O)[C@@H](O)[C@@H]1O (stereo partly shown) [isomaltulose] | No detectable activities |  |
| OC[C@H]1O[C@@H](O[C@H]2[C@H](O)[C@@H](O)C(O)O[C@@H]2CO)[C@H](O)[C@@H](O)[C@H]1O (stereo partly shown) [lactose] | No detectable activities |  |
| OC[C@H]1O[C@H](O[C@H]2[C@H](O)[C@@H](O)[C@@H](O[C@H]3[C@H](O)[C@@H](O)[C@@H](O[C@H]4[C@H](O)[C@@H](O)[C@@H](O[C@H]5[C@H](O)[C@@H](O)C(O)O[C@@H]5CO)O[C@@H]4CO)O[C@@H]3CO)O[C@@H]2CO)[C@H](O)[C@@H](O)[C@@H]1O (stereo partly shown) [maltopentose] | No detectable activities |  |
| OC[C@H]1O[C@H](O[C@H]2[C@H](O)[C@@H](O)[C@H](O)O[C@@H]2CO)[C@H](O)[C@@H](O)[C@@H]1O [maltose] | converted them to each other |  |
| OC[C@H]1O[C@H](O[C@H]2[C@H](O)[C@@H](O)[C@@H](O[C@H]3[C@H](O)[C@@H](O)[C@@H](O[C@H]4[C@H](O)[C@@H](O)C(O)O[C@@H]4CO)O[C@@H]3CO)O[C@@H]2CO)[C@H](O)[C@@H](O)[C@@H]1O (stereo partly shown) [maltotetraose] | No detectable activities |  |
| OC[C@@H](O)[C@@H](O)[C@H](O)[C@@H](O)CO [sorbitol] | No detectable activities |  |
| OC[C@H]1O[C@@](CO)(O[C@H]2O[C@H](CO)[C@@H](O)[C@H](O)[C@H]2O)[C@@H](O)[C@@H]1O [sucrose] | quite low |  |
| OC[C@H]1O[C@H](O[C@H]2O[C@H](CO)[C@@H](O)[C@H](O)[C@H]2O)[C@H](O)[C@@H](O)[C@@H]1O [trehalose, α-D-glucopyranosyl α-D-glucopyranoside] | converted them to each other |  |
| OC[C@H]1O[C@@H](O[C@H]2O[C@H](CO)[C@@H](O)[C@H](O)[C@H]2O)[C@H](O)[C@@H](O)[C@@H]1O [α,β-1,1-trehalose] |  | about 7% |
| OC[C@H]1O[C@@H](O[C@@H]2O[C@H](CO)[C@@H](O)[C@H](O)[C@H]2O)[C@H](O)[C@@H](O)[C@@H]1O [β,β-1,1-trehalose] | No detectable activities |  |
| maltotriose | No detectable activities |  |

Tested on: not listed separately
Experiment: Enzyme assay: amount of trehalose produced from maltose by PTTS
Assay type: biochemical, Picrophilus torridus
Conditions: PTTS without His-tag
Description: as §1, §2

| Molecule | specific activity relative to the recombinant His-tag fusion PTTS |
| --- | --- |
| B1 | about 1.3 fold |

Tested on: PTTS
Experiment: Effects of metal ions and reagents on PTTS activity
Assay type: biochemical, Picrophilus torridus
Conditions: 1 mM metal ion or reagent, standard assay conditions
Description: as §1
Effects of Metal Ions and Reagents on PTTS Activity. The effects of metal ions and reagents were determined by examining enzyme activity in the presence of 1 mM and 10 mM metal ions or reagents under standard assay conditions (FIG. 8).

| Molecule | inhibition of enzyme activity |
| --- | --- |
| [Ag+] [Ag^+] | inhibited strongly |
| [Al+3] [Al^3+] | inhibited strongly |
| [Cd+2] [Cd^2+] | moderately |
| [Cu+2] [Cu^2+] | moderately |
| [Hg+2] [Hg^2+] | inhibited strongly |
| [Pb+2] [Pb^2+] | moderately |
| CCCCCCCCCCCCOS(=O)(=O)[O-].[Na+] [SDS] | inhibited strongly |
| NC(CO)(CO)CO [Tris] | moderately |
